# Results from the supplement of paper PMC6045584.
# ± gives the standard deviation of the averaged measurements.
# Key:
# AFIMOXIFENE = compound: CC/C(=C(\c1ccc(O)cc1)c1ccc(OCCN(C)C)cc1)c1ccccc1 [AFIMOXIFENE]; experiment: surviving fraction relative to DMSO-only wells; higher = less growth inhibition; conditions: exposure time: 5 days
# Method in brief: (§1)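 Surviving fraction is CellTiter-Glo luminescence divided by the median of wells given DMSO only. For this, log-phase tumour cell lines went into 384-well plates at 250–500 cells per well and, 24 hours later, into five days of continuous inhibitor exposure at 0.5, 1, 5, 10, 50, 100, 500 and 1000 nM. Lines were screened three times and retained only if replicate Pearson r >0.7 and median Z' >0.3.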
# MK-1775 = compound: C=CCn1c(=O)c2cnc(Nc3ccc(N4CCN(C)CC4)cc3)nc2n1-c1cccc(C(C)(C)O)n1 [MK-1775]; experiment: as above; conditions: exposure time: 5 days
# Method in brief: as §1
Test System,surviving fraction (AFIMOXIFENE; 0.5 nM),surviving fraction (AFIMOXIFENE; 1 nM),surviving fraction (AFIMOXIFENE; 5 nM),surviving fraction (AFIMOXIFENE; 10 nM),surviving fraction (AFIMOXIFENE; 50 nM),surviving fraction (AFIMOXIFENE; 100 nM),surviving fraction (AFIMOXIFENE; 500 nM),surviving fraction (AFIMOXIFENE; 1000 nM),surviving fraction (MK-1775; 0.5 nM),surviving fraction (MK-1775; 1 nM),surviving fraction (MK-1775; 5 nM),surviving fraction (MK-1775; 10 nM),surviving fraction (MK-1775; 50 nM),surviving fraction (MK-1775; 100 nM),surviving fraction (MK-1775; 500 nM),surviving fraction (MK-1775; 1000 nM)
SNU475 LIVER,1.06 ± 0.024,1.09 ± 0.055,1.03 ± 0.016,1.04 ± 0.057,1.01 ± 0.022,1.07 ± 0.034,1.01 ± 0.054,1.07 ± 0.062,1.05 ± 0.06,1.04 ± 0.032,1.04 ± 0.024,0.9893 ± 0.0081,0.941 ± 0.035,0.884 ± 0.054,0.58 ± 0.031,0.345 ± 0.033
SKBR3 BREAST,1.16 ± 0.077,1.1 ± 0.16,1.16 ± 0.11,1.12 ± 0.16,1.17 ± 0.13,1.06 ± 0.19,1.16 ± 0.12,0.923 ± 0.12,1.07 ± 0.15,0.873 ± 0.22,0.975 ± 0.15,1.02 ± 0.15,0.858 ± 0.12,0.746 ± 0.077,0.308 ± 0.031,0.182 ± 0.0035
SCC36 HEADNECK,1.07 ± 0.16,0.969 ± 0.026,1.13 ± 0.046,1.1 ± 0.047,1.07 ± 0.047,1.1 ± 0.078,0.883 ± 0.06,0.732 ± 0.074,1.05 ± 0.066,1.08 ± 0.12,1.18 ± 0.065,0.995 ± 0.053,0.906 ± 0.035,0.739 ± 0.037,0.323 ± 0.029,0.228 ± 0.021
CAL72 BONE,1.1 ± 0.045,1.08 ± 0.069,1.11 ± 0.037,1.12 ± 0.034,1.14 ± 0.082,1.13 ± 0.07,0.967 ± 0.17,0.832 ± 0.21,1.06 ± 0.019,1.08 ± 0.041,1.07 ± 0.047,1.05 ± 0.023,1.11 ± 0.041,0.959 ± 0.018,0.123 ± 0.0076,0.109 ± 0.0067
LNCAP PROSTATE,1.08 ± 0.041,0.942 ± 0.1,1.04 ± 0.063,1 ± 0.098,1.06 ± 0.061,1.04 ± 0.087,1.02 ± 0.08,0.983 ± 0.088,0.99 ± 0.088,0.951 ± 0.14,0.995 ± 0.082,0.921 ± 0.14,0.984 ± 0.065,0.544 ± 0.073,0.161 ± 0.012,0.0767 ± 0.013
A549 LUNG,1.07 ± 0.021,1.065 ± 0.0068,1.06 ± 0.022,1.08 ± 0.013,1.05 ± 0.023,1.1 ± 0.03,1.09 ± 0.022,1.11 ± 0.032,1.02 ± 0.051,0.985 ± 0.059,0.995 ± 0.057,0.998 ± 0.032,1.05 ± 0.037,1.08 ± 0.047,0.816 ± 0.02,0.38 ± 0.011
SCC90 HEADNECK,1.14 ± 0.052,1.12 ± 0.11,1.1 ± 0.045,1.19 ± 0.068,1.12 ± 0.074,1.09 ± 0.059,1.11 ± 0.025,1.05 ± 0.075,1.25 ± 0.31,1.2 ± 0.16,1.07 ± 0.078,1.12 ± 0.25,0.704 ± 0.034,0.355 ± 0.017,0.0583 ± 0.0068,0.0493 ± 0.011
SUM44 BREAST,1.17 ± 0.34,1.22 ± 0.34,1.2 ± 0.26,1.2 ± 0.39,1.3 ± 0.43,1.19 ± 0.36,1.13 ± 0.29,1.08 ± 0.32,1.043 ± 0.0078,1.08 ± 0.034,1.04 ± 0.023,1.07 ± 0.017,0.979 ± 0.017,0.561 ± 0.014,0.26 ± 0.0095,0.254 ± 0.01
MHM BONE,1.02 ± 0.021,1.03 ± 0.05,1.09 ± 0.049,1.07 ± 0.033,1.06 ± 0.025,1.06 ± 0.027,1.01 ± 0.022,1.02 ± 0.028,0.981 ± 0.02,0.9753 ± 0.0067,1.04 ± 0.015,1.01 ± 0.033,1.02 ± 0.025,1.03 ± 0.025,0.638 ± 0.013,0.5597 ± 0.00058
H23 LUNG,1.06 ± 0.045,1.05 ± 0.026,1.07 ± 0.05,1.03 ± 0.016,1.07 ± 0.023,1.09 ± 0.094,1.07 ± 0.08,1.06 ± 0.11,1.04 ± 0.018,1.02 ± 0.041,1.04 ± 0.06,1.03 ± 0.1,0.86 ± 0.054,0.632 ± 0.045,0.285 ± 0.023,0.209 ± 0.034
SUM149 BREAST,1.12 ± 0.094,1.02 ± 0.1,1.03 ± 0.078,1.03 ± 0.14,0.861 ± 0.031,0.911 ± 0.076,1.01 ± 0.11,0.868 ± 0.032,1.13 ± 0.077,1.09 ± 0.069,1.16 ± 0.095,1.12 ± 0.097,0.706 ± 0.025,0.328 ± 0.024,0.073 ± 0.0044,0.0517 ± 0.0025
MFM223 BREAST,1.28 ± 0.067,1.21 ± 0.043,1.19 ± 0.084,1.22 ± 0.13,1.2 ± 0.043,–,1.1 ± 0.062,0.932 ± 0.043,1.16 ± 0.057,1.14 ± 0.04,1.06 ± 0.067,1.14 ± 0.036,0.958 ± 0.045,0.545 ± 0.05,0.161 ± 0.0064,0.192 ± 0.02
ASKA SYNOVIAL,1.11 ± 0.056,1.18 ± 0.097,1.18 ± 0.096,1.23 ± 0.031,1.18 ± 0.029,1.17 ± 0.069,1.04 ± 0.1,1.14 ± 0.064,0.946 ± 0.032,1.02 ± 0.1,1.1 ± 0.03,1.02 ± 0.023,0.405 ± 0.0092,0.406 ± 0.012,0.295 ± 0.019,0.37 ± 0.015
HSSYII SYNOVIAL,0.993 ± 0.029,1.04 ± 0.021,0.989 ± 0.075,1.02 ± 0.055,1.01 ± 0.035,0.993 ± 0.046,0.921 ± 0.07,0.968 ± 0.05,1.05 ± 0.034,1 ± 0.03,1.002 ± 0.0055,0.884 ± 0.012,0.628 ± 0.035,0.12 ± 0.0027,0.147 ± 0.064,0.0442 ± 0.0045
HT1080 SOFT TISSUE,1.07 ± 0.035,1.08 ± 0.018,1.08 ± 0.037,1.04 ± 0.018,1.01 ± 0.039,1.04 ± 0.023,1.07 ± 0.042,1.06 ± 0.035,1.02 ± 0.03,1.01 ± 0.017,0.992 ± 0.019,1.02 ± 0.023,0.638 ± 0.025,0.277 ± 0.012,0.113 ± 0.015,0.091 ± 0.0089
CHLA90 AUTONOMIC GANGLIA,0.969 ± 0.013,0.966 ± 0.061,0.985 ± 0.077,0.98 ± 0.039,–,1.16 ± 0.078,1.09 ± 0.088,1.05 ± 0.11,1.03 ± 0.051,1.06 ± 0.073,0.981 ± 0.023,0.963 ± 0.024,0.791 ± 0.011,0.681 ± 0.036,0.0927 ± 0.0067,0.076 ± 0.013
JIMT1 BREAST,1.01 ± 0.045,0.972 ± 0.026,1 ± 0.032,0.994 ± 0.048,1.08 ± 0.065,1.05 ± 0.066,1.04 ± 0.08,0.939 ± 0.024,1.02 ± 0.021,0.987 ± 0.016,0.989 ± 0.01,0.991 ± 0.012,0.4405 ± 0.0039,0.227 ± 0.0077,0.0768 ± 0.0097,0.0532 ± 0.0013
RDES SOFT TISSUE,1.25 ± 0.09,1.16 ± 0.052,1.16 ± 0.034,1.14 ± 0.095,1.14 ± 0.14,1.15 ± 0.062,1.59 ± 0.34,0.955 ± 0.11,1.17 ± 0.088,1.09 ± 0.12,1.1 ± 0.077,1.08 ± 0.13,0.871 ± 0.3,1.15 ± 0.18,0.406 ± 0.055,0.187 ± 0.036
NOS1 BONE,1.05 ± 0.094,1.16 ± 0.28,1.18 ± 0.08,1.27 ± 0.12,1.4 ± 0.15,1.21 ± 0.076,1.08 ± 0.072,0.973 ± 0.19,0.939 ± 0.1,1.08 ± 0.028,0.945 ± 0.02,0.764 ± 0.039,0.209 ± 0.011,0.158 ± 0.02,0.223 ± 0.029,0.206 ± 0.036
HCC78 LUNG,0.893 ± 0.16,0.908 ± 0.17,0.902 ± 0.39,1.05 ± 0.19,–,1.13 ± 0.077,1.29 ± 0.2,1.08 ± 0.094,0.883 ± 0.12,0.875 ± 0.14,1.07 ± 0.32,1.02 ± 0.13,0.827 ± 0.15,0.839 ± 0.08,0.105 ± 0.022,0.0803 ± 0.02
